# B1: BMP4: growth factor (R & D Systems) included at 20 ng/ml in some experiments (protein, UniProt P12644 293-408, looked up)
# Bone morphogenetic protein 4: SPKHHSQRARKKNKNCRRHSLYVDFSDVGWNDWIVAPPGYQAFYCHGDCPFPLADHLNSTNHAIVQTLVNSVNSSIPKACCVPTELSAISMLYLDEYDKVVLKNYQEMVVEGCGCR
# Assays:
# Assay type in all cases: cell-based, human
# [1] = tested on: MCRIi018-B hypertrophic organoids; experiment: Hypertrophic chondrocyte to osteoblast transdifferentiation in vitro
# Method: Hypertrophic chondrocytes can transdifferentiate into osteoblasts and osteocytes in vivo (Yang et al., 2014; Zhou et al., 2014). To recapitulate this later stage of endochondral bone formation in vitro, hypertrophic chondrocyte pellets in orbital culture were rinsed in PBS then cultured in DMEM, high glucose, GlutaMAX Supplement, pyruvate (ThermoFisher), 20% FBS (ThermoFisher), 10 mM β-glycerophosphate, 50 μg/ml ascorbic acid 2-phosphate, 50 μg/ml sodium ascorbate, 100 nM dexamethasone (osteogenic differentiation media) for up to three weeks. […] Media was replaced every 2-3 days. […]
# MCRIi001-A-2 organoids = experiment: Osteogenic differentiation conditions in a second iPSC line; details: osteogenic conditions with a CHIR99021 pulse v osteogenic medium alone
# Method: Hypertrophic chondrocytes can transdifferentiate into osteoblasts and osteocytes in vivo (Yang et al., 2014; Zhou et al., 2014). To recapitulate this later stage of endochondral bone formation in vitro, hypertrophic chondrocyte pellets in orbital culture were rinsed in PBS then cultured in DMEM, high glucose, GlutaMAX Supplement, pyruvate (ThermoFisher), 20% FBS (ThermoFisher), 10 mM β-glycerophosphate, 50 μg/ml ascorbic acid 2-phosphate, 50 μg/ml sodium ascorbate, 100 nM dexamethasone (osteogenic differentiation media) for up to three weeks. […] Media was replaced every 2-3 days.
# Cultured and in vivo grafted pellet organoids were fixed overnight at 4° C. in Confix (Australian Biostain) neutral-buffered formalin, then […] washed in 70% ethanol, and paraffin-embedded. After fixing, some in vivo grafted pellets were washed in water for 10 minutes then decalcified in 14% EDTA, pH 7.4 at 4° C. for 5 days before embedding. Serial 5 μm sections cut from the pellet centers were mounted on Superfrost Plus slides (Menzel-Gläser) and heated at 55° C. overnight. Sections were treated with xylene to remove the paraffin wax and an ethanol series comprising 100%, 90%, 70%, 50% ethanol then water to rehydrate the sections. Sections were stained with toluidine blue to detect a cartilage proteoglycan matrix or safranin O/fast green for cartilage and bone following standard protocols. […]
# [2] = tested on: iPSC-derived sclerotome pellets (MCRIi018-B); experiment: Sclerotome to chondrocyte differentiation in pellet culture (FGF2 v BMP4); details: for collagen II extracellular matrix (immunostaining) / collagen X extracellular staining: day 48; for collagen X extracellular staining: static pellets
# Method: Sclerotome to chondrocyte differentiation was in APEL2 medium containing 5% Protein Free Hybridoma Medium (PFHM II; Thermo Fisher) and 20 ng/ml FGF2. In some experiments BMP4 (R & D Systems) was included at 20 ng/ml. Pellets were routinely transferred to 6 cm non-adherent dishes (Greiner) at the end of either day 6 or day 20; 15-20 pellets per dish in 5 ml of medium with orbital rotation at 60 rpm. The medium was changed every 2-3 days. From day 20 (after 2 weeks of FGF2 treatment), differentiation/maturation continued in APEL2/5% PFHM with medium replaced every 2-3 days for the duration of the chondrogenic differentiation experiments as indicated. In some experiments pellets were treated with FGF2 for 4 weeks post-sclerotome.
# (§1) Cultured and in vivo grafted pellet organoids were fixed overnight at 4° C. in Confix (Australian Biostain) neutral-buffered formalin, then […] washed in 70% ethanol, and paraffin-embedded. After fixing, some in vivo grafted pellets were washed in water for 10 minutes then decalcified in 14% EDTA, pH 7.4 at 4° C. for 5 days before embedding. Serial 5 μm sections cut from the pellet centers were mounted on Superfrost Plus slides (Menzel-Gläser) and heated at 55° C. overnight. Sections were treated with xylene to remove the paraffin wax and an ethanol series comprising 100%, 90%, 70%, 50% ethanol then water to rehydrate the sections. Sections were stained with toluidine blue to detect a cartilage proteoglycan matrix or safranin O/fast green for cartilage and bone following standard protocols. Osteogenic pellet sections were also stained with von Kossa to detect mineralization. Images were captured using a Leica DM 2000 LED microscope with Leica Application Suite (LAS) software version 4.9.0 or Zeiss Axio Imager Z2 with Zen 3.1 Blue Edition software.
# (§2) Formalin fixed and paraffin-embedded sections were immunostained for collagen II (MAB8887; Sigma-Aldrich; 1:150 dilution), collagen I (LF68; Kerafast ENH018-FP; 1:100), collagen X (Cameron et al., 2015) (1:100), PRG4 (clone 9G3; Merck) (1:100) and Ku80 (Cell Signaling) (1:300). For collagen II staining, antigen retrieval used 2 mg/ml porcine pepsin (Sigma) freshly prepared in 1 M Tris/HCl, pH 2.0 for 30 minutes at 37° C., followed by digestion for 30 minutes at 37° C. with 0.2% hyaluronidase (Sigma-Aldrich) in PBS. Collagen X antigen retrieval involved heating to 60° C. in 10 mM Tris/1 mM EDTA/0.05% Tween-20, pH 9.0 (Tris/EDTA) for 30 min, cooling to room temperature for 30 minutes, followed by hyaluronidase digestion and collagen I and Ku80 staining followed antigen retrieval at 60° C. in Tris/EDTA as above. Sections to be stained with Ku80 were then permeabilized with 0.05% Triton X-100. Sections were blocked with 3% BSA in PBS for 1 hour at room temperature, then incubated with primary antibodies in 1% BSA in PBS for 16 hours at 4° C. Appropriate species specific Alexa Fluor 488 and 594 secondary antibodies (ThermoFisher) were diluted 1:200 in 1% BSA in PBS with 2.5 μg/ml DAPI, and sections incubated for 1 hour at room temperature. Slides were washed with PBS and coverslips mounted using Shandon Immumount (ThermoFisher). Images were captured as described above. For collagen X intracellular colocalization studies sections were treated with 0.2% hyaluronidase at 37° C. for 30 minutes then permeabilized with 0.05% Triton X-100. The collagen X antibody was used at 1:100, 58K (PA1-9000; ThermoFisher) at 1:50, GRP94 (PA5-18534; ThermoFisher) 1:200 and LAMP2 (ab25631; Abcam) 1:50. Images were captured on a Zeiss LSM900 Airyscan 2 confocal microscope with Zen 3.1 Blue Edition software.
# RNA was extracted from monolayer cultures using TRIzol […] following the manufacturer's instructions. Typically 100-200 ng total RNA was used for cDNA synthesis in a total volume of 20 μl using the QuantiTect® Reverse Transcription kit (Qiagen) according to the manufacturer's instructions. […]
# [3] = tested on: iPSC-derived chondroprogenitors (MCRIi019-A); experiment: TGFβ3 induction of an articular chondrocyte phenotype; details: day 48
# Method: In some experiments, differentiated chondrocytes were treated with 10 ng/ml TGFβ3 (R&D Systems) for up to 34 days to generate articular cartilage. From day 6, differentiation/maturation continued in APEL2/5% PFHM (with FGF2) for 7 days. From day 13, 10 ng/ml TGFβ3 was added (i.e. FGF2 and TGFβ3) with medium replaced every 2-3 days. At day 20, the pellets were transferred to rotary culture and cultured with 10 ng/ml TGFβ3 (R&D Systems) (and without FGF2) for a further 4 weeks.
# as §1, §2
# For RNAseq, organoids (2-3 pooled) were snap frozen in liquid nitrogen, pulverized using a liquid nitrogen-cooled tissue grinder and RNA extracted with TRIzol, followed by purification using Direct-zol RNA Microprep kit spin columns (Zymo Research) according to the manufacturer's instructions. RNA samples were quality controlled and sequenced at the Translational Genomics Unit, Murdoch Children's Research Institute. Libraries were constructed using Illumina Stranded mRNA Prep kits and sequenced using a NextSeq 500 to obtain ˜20×10^6 75 bp paired-end reads per sample or a NovaSeq 6000 for 150 bp paired-end reads. […]
# [4] = osteogenic conditions with CHIR, RNAseq
# [5] = osteogenic conditions with a CHIR pulse, RNAseq
# [6] = 20 ng/ml for 14 days post-sclerotome, qRT-PCR
# [7] = 20 ng/ml for 14 days post-sclerotome, static culture, day 34
molecule,measurement,setting,value
"Cc1cnc(-c2cnc(NCCNc3ccc(C#N)cn3)nc2-c2ccc(Cl)cc2Cl)[nH]1 [CHIR99021, 6-[[2-[[4-(2,4-Dichlorophenyl)-5-(5-methyl-1H-imidazol-2-yl)-2-pyrimidinyl]amino]ethyl]amino]-3-pyridinecarbonitrile]",COL1A1 mRNA expression v osteogenic medium alone,[1]; RNAseq,much higher
same,"bone markers COL3A1, COL5A1 and OMD mRNA v osteogenic medium alone",[1]; RNAseq,more highly expressed
same,"other cartilage markers (SOX9, COMP, IHH, MATN3, CEBPB, COL11A1, COL11A2, COL9A1, COL9A2, COL9A3) mRNA v osteogenic medium alone",[1]; RNAseq,downregulated more
same,COL1A1 upregulation v hypertrophic chondrocytes,[1]; [4],324 fold
same,COL1A2 upregulation v hypertrophic chondrocytes,[1]; [4],210 fold
same,DMP1 upregulation v hypertrophic chondrocytes,[1]; [4],935 fold
same,IBSP upregulation v hypertrophic chondrocytes,[1]; [4],7 fold
same,IFITM5 upregulation v hypertrophic chondrocytes,[1]; [4],105 fold
same,CCDC3 upregulation v hypertrophic chondrocytes,[1]; [5],121 fold
same,FAP upregulation v hypertrophic chondrocytes,[1]; [5],64 fold
same,POSTN upregulation v hypertrophic chondrocytes,[1]; [5],54 fold
same,SFRP4 upregulation v hypertrophic chondrocytes,[1]; [5],4 fold
same,TNC upregulation v hypertrophic chondrocytes,[1]; [5],72 fold
same,toluidine blue staining,[1]; osteogenic medium with 7-day pulse then 2 weeks osteogenic medium alone,marked reduction in toluidine blue staining
same,μCT calcium phosphate mineral,[1]; three weeks,little μCT attenuation
same,von Kossa staining (matrix mineralization),"[1]; three weeks, compared between the two osteogenic conditions",positive von Kossa staining
same,aggrecan degradation (toluidine blue),MCRIi001-A-2 organoids,more extensive
FGF2: FGF pathway activator growth factor (PeproTech) used at 20 ng/ml post-sclerotome,COL2A1 and ACAN gene expression,[2]; [6],consistently higher than in BMP4 cultures
same,toluidine blue staining of pellets,[2]; [7],strong toluidine blue staining throughout
same,collagen II extracellular matrix (immunostaining),[2],extensive and uniform collagen II extracellular matrix
same,collagen X extracellular staining,[2],strong
same,toluidine blue staining of pellets,[2]; rotary culture from day 6,stained throughout with toluidine blue
TGFβ3: TGF-beta agonist growth factor (R&D Systems) used at 10 ng/ml,PRG4 immunostaining,[3]; 10 ng/ml from day 13,High uniform PRG4 immunostaining
same,chondrocyte morphology,[3]; 10 ng/ml from day 13,smaller chondrocytes
same,collagen II expression (immunostaining),[3]; 10 ng/ml from day 13,also expressing collagen II
same,collagen X (immunostaining),[3]; 10 ng/ml from day 13,no extracellular collagen X
same,ACAN and HAPLN mRNA,[3]; RNAseq,down-regulation
same,"COL10A1, IBSP, SPP1 and MATN3 mRNA",[3]; RNAseq,among the most downregulated
same,COMP mRNA v untreated chondronoids,[3]; RNAseq,not differentially expressed
same,ERG transcription factor mRNA,[3]; RNAseq,highly expressed and upregulated
same,MEOX1 and MEOX2 mRNA,[3]; RNAseq,highly upregulated
same,"PRG4, ASPN, CILP and CILP2 mRNA v untreated chondronoids",[3]; RNAseq,strongly upregulated
same,"downregulation of COL2A1, COL9A1, COL9A2, COL9A3, COL11A1 mRNA v untreated chondronoids",[3]; RNAseq,≤ 2 fold
same,"elastic fiber components ELN, LTBP2, TGFBI and MFAP5 mRNA",[3]; RNAseq,among the 20 most highly upregulated genes
same,"hypertrophy transcription factors MEF2C, RUNX2, SP7 and DLX5 mRNA",[3]; RNAseq,Among the most strongly downregulated
B1,COL10A1 gene expression,[2]; [6],expressed earlier
same,toluidine blue staining of pellets,[2]; [7],only isolated areas were toluidine blue positive
same,expression of key cartilage genes,"[2]; 20 ng/ml for two weeks post-sclerotome, first experiments, data not shown",key cartilage genes were not highly expressed
same,collagen II extracellular matrix (immunostaining),[2],only small foci that were positive for collagen II
same,collagen X extracellular staining,[2],"only seen in small, localized regions"
same,maintenance of pellets in rotary culture,[2]; transfer to rotary culture at end of day 6,fragile and could not be maintained in rotary culture

# Source: patent US20250270507A1, “METHODS FOR PRODUCING CARTILAGE AND BONES” (Murdoch Children's Research Institute, priority 2021, published 2025)
